# B1: C5a: Murine C5a from Cell Sciences, Inc (protein, UniProt P06684 679-755, looked up)
# C5a anaphylatoxin: NLHLLRQKIEEQAAKYKHSVPKKCCYDGARVNFYETCEERVARVTIGPLCIRAFNECCTIANKIRKESPHKPVQLGR
# modifications: C5a anaphylatoxin
# notes: Murine C5a from Cell Sciences, Inc
# Tests used:
# [1] = tested on: anti-CD3/CD28 stimulated CD4^+ cells; assay: qPCR of complement and FoxP3 mRNA in anti-CD3/CD28 stimulated CD4+ cells; type: cell-based, C57BL/6 mice; conditions: for FoxP3 mRNA transcription: anti-CD3/28 stimulated naive CD4+ cells, C5a 100 ng/ml, 1 hr; for transcription of complement genes (complement mRNA): qPCR
# Experimental: FIGS. 3(A-I) illustrate graphs showing: A) 1×10^6 CD62L^hiCD25^−CD4^+ cells from WT or C3aR^−/−C5aR^−/− mice were incubated with anti-CD3/CD28 Dynabead activation beads, 5 ng/ml rhIL-2, and 1×10^5 CD11c^+ WT DCs for 3 days. The CD4^+ cell and DC partners were sorted, after which the DCs were assayed for B7 family members (*P<0.01; **P<0.03; ***P=0.07) and the CD4^+ cells were assayed for B7 coinhibitory counter-receptors by flow. B) 1×10^6 CD62L^hiCD25^−CD4^+ cells from WT mice were incubated with anti-CD3/CD28 Dynabead activation beads, 5 ng/ml rhIL-2, and 1×10^5 CD11c^+ WT DCs for 3 days±10 nM C3aR-A/C5aR-A or ±5 ng/ml rhTGF-fβ1. The CD4^+ cell and DC partners were sorted, after which the cells were assayed as in (A; *P<0.01 C3aR-A/C5aR-A vs. TGF-β1). C) 1×10^6 CD62L^hiCD25^− CD4^+ cells from WT or C3aR^−/−C5aR^−/− were incubated with anti-CD3/CD28 Dynabead activation beads, 5 ng/ml rhIL-2, and 1×10^5 CD11c^+ WT DCs for 3 days in the presence of blocking anti-CTLA-4, anti-PD-1, or anti-ICOS-L Abs and percent FoxP3^+ cells assayed by flow cytometry. D) 1×10^6 CD62L^hiCD25^− CD4^+ cells from WT, ICOS^−/−, or PD-1^−/− were incubated with anti-CD3/CD28 Dynabead activation beads, 5 ng/ml rhIL-2, and […] CD11c^+ WT or PD-L1^−/− DCs for 3 days in the presence of blocking anti-CTLA-4, anti-PD-1, or anti-ICOS-L Abs and percent FoxP3^+ cells assayed by flow cytometry. E) Anti-CD3/CD28 stimulated CD4^+ cells were treated with TGF-β1 or buffer and complement mRNA transcripts were assayed by qPCR. F-H) 1×10^4 CD62L^hiCD25^− CD4^+ cells from C57BL/6 mice were incubated with anti-CD3/CD28 Dynabeads and 5 ng/ml rhIL-2 for 3 days in the presence of TGF-β, TGF-β+IL-6, or IL-6 after which cells were assayed for (F) C3 mRNA expression by qPCR, (G) C3 and C5a generation by ELSIA, and (H) C3aR and C5aR surface expression by flow cytometry. I) C57BL/6 CD4^+ T cells were incubated for 1 hr with anti-CD3/CD28±100 ng/ml C5a and FoxP3 mRNA was quantitated by qPCR.
# For C3aR/C5aR signaling to be absent, local complement production by interacting DCs and CD4^+ cells must not occur or be suppressed. […] As a first test of this, we incubated anti-CD3/CD28 stimulated CD4^+ cells in the presence and absence of TGF-β1. […] To test how IL-6 affects CD4^+ cell complement production, we added IL-6 to naive CD4^+ cells. […]
# […] for 5 min at 20° C. using Trizol (Invitrogen, Carlsbad, Calif.) according to the manufacturer. When C3aR and C5aR mRNAs were analyzed, preparations were treated with DNase I (standard protocol) to remove genomic DNA. cDNAs were synthesized by incubating 20 μl of mRNAs in Sprint PowerScript Single Shots (Clontech, Mountain View, Calif.). […]
# [2] = tested on: DC-CD4^+ cell C3a/C5a production; assay: C3a/C5a generation by ELISA; type: cell-based, C57BL/6 mice; conditions: 3 days
# Experimental: (§1) FIGS. 3(A-I) illustrate graphs showing: A) 1×10^6 CD62L^hiCD25^−CD4^+ cells from WT or C3aR^−/−C5aR^−/− mice were incubated with anti-CD3/CD28 Dynabead activation beads, 5 ng/ml rhIL-2, and 1×10^5 CD11c^+ WT DCs for 3 days. The CD4^+ cell and DC partners were sorted, after which the DCs were assayed for B7 family members (*P<0.01; **P<0.03; ***P=0.07) and the CD4^+ cells were assayed for B7 coinhibitory counter-receptors by flow. B) 1×10^6 CD62L^hiCD25^−CD4^+ cells from WT mice were incubated with anti-CD3/CD28 Dynabead activation beads, 5 ng/ml rhIL-2, and 1×10^5 CD11c^+ WT DCs for 3 days±10 nM C3aR-A/C5aR-A or ±5 ng/ml rhTGF-fβ1. The CD4^+ cell and DC partners were sorted, after which the cells were assayed as in (A; *P<0.01 C3aR-A/C5aR-A vs. TGF-β1). […] I) C57BL/6 CD4^+ T cells were incubated for 1 hr with anti-CD3/CD28±100 ng/ml C5a and FoxP3 mRNA was quantitated by qPCR. […]
# For C5a, C3a, IL-2, IL-10, and IL-6, capture and biotinylated detection Ab pairs were purchased from BD Biosciences. […] Reactions were terminated using 1N H2SO4 and plates were read using a SpectraMax M2 fluorimeter. • Induction and Evaluation of EAE
# [3] = tested on: C3aR/C5aR expression; assay: C3aR and C5aR surface expression by flow cytometry; type: cell-based, C57BL/6 mice; conditions: 3 days
# Experimental: as §1, with “TGF-β1). C) 1×10^6 CD62L^hiCD25^− CD4^+ cells from WT or C3aR^−/−C5aR^−/− were incubated with anti-CD3/CD28 Dynabead activation beads, 5 ng/ml rhIL-2, and 1×10^5 CD11c^+ WT DCs for 3 days in the presence of blocking anti-CTLA-4, anti-PD-1, or anti-ICOS-L Abs and percent FoxP3^+ cells assayed by flow cytometry.” for “TGF-β1).”
# [4] = tested on: naive CD4^+ cells; assay: FoxP3+ iTreg induction from naive CD4+ cells stimulated with anti-CD3, IL-2 and DCs (flow cytometry); type: cell-based, mice
# [5] = tested on: iTregs; assay: Costimulatory molecule expression of iTregs by flow cytometry; type: cell-based, mice; conditions: higher
# Experimental: as §1, with “TGF-β1). C) 1×10^6 CD62L^hiCD25^− CD4^+ cells from WT or C3aR^−/−C5aR^−/− were incubated with anti-CD3/CD28 Dynabead activation beads, 5 ng/ml rhIL-2, and 1×10^5 CD11c^+ WT DCs for 3 days in the presence of blocking anti-CTLA-4, anti-PD-1, or anti-ICOS-L Abs and percent FoxP3^+ cells assayed by flow cytometry.” for “TGF-β1).”
# [6] = tested on: human CD45RA^+CD25^−CD4^+ cells; assay: Human iTreg preparation and human Treg suppression assay; type: cell-based
# Experimental: FIGS. 5(A-G) illustrate graphs showing, A-C) EAE was induced in FoxP3-GFP knockin mice and 10 days after disease onset, CD4 cells were isolated from spleens and lymph nodes and sorted on GFP. 4×10^6 GFP negative cells were adoptively transferred into Rag2^−/− mice. The mice were subsequently injected with 1×10^6 FoxP3-GFP positive cells or PBS after which A) weight change, B) clinical scores, and C) percent FoxP3^+ cells were assayed. D-E) EAE was induced in WT and C3aR^−/−C5aR^−/− mice and at day 12 post disease induction draining LN cells were harvested and assayed for D) % FoxP3^+ cells, and E) suppressive capacity as above. F) EAE was induced in FoxP3-GFP knockin mice and 10 days after induction mice were treated with buffer control, C3aR-A/C5aR-A, or ex vivo generated FoxP3^+ Tregs (from FoxP3-GFP mice with C3aR-A/C5aR-A), after which […]) clinical scores were assessed. G) CD25^+ cells from 1×10^6 CD25^−CD4^+ Human T cells isolated by flow cytometry and incubated with soluble anti-CD3, IL-2, and autologous DCs in the presence and absence of TGF-β, C3aR-A/C5aR-A, or anti-C3a/C5a mAbs for 3 days were incubated with CFSE labeled autologous naive T cells, anti-CD3, and autologous DCs and percent dividers determined 3 days thereafter by CFSE dilution. […]
# [7] = tested on: CellTracker Red-labeled OT-II cells; assay: Murine Treg suppression assay; type: cell-based, mice; conditions: cells from stimulated naive C3−/−C5−/− CD4+ cells, C5a added
Molecule,FoxP3 mRNA transcription [1],transcription of complement genes (complement mRNA) [1],DC-CD4+ cell C3a/C5a production [2],C3aR/C5aR expression [3],"FoxP3+ cell induction ([4]; anti-CD3/CD28 stimulated CD4+ cells, added TGF-β1)",costimulatory molecule expression of iTregs generated with exogenous TGF-β1 relative to those generated by C3aR/C5aR antagonism [5],costimulatory molecules on human iTregs (phenotyping) ([6]; human iTregs),"suppression by CD25+ (FoxP3+) cells of CFSE-labeled CD25−CD4+ cells ([6]; human, equal number of sorted CD25+ cells, DCs, anti-CD3, same individual)","iTreg induction ([4]; naive C3−/−C5−/− CD4+ cells stimulated with anti-CD3, DCs and IL-2, C5a added)",suppressor function [7]
IL-6: cytokine IL-6 added to naive CD4+ cells,inhibited,upregulated,evoked,upregulated,–,–,–,–,–,–
TGF-β1: human TGF-β1 from Prospec Bio,–,abolished,did neither,did neither,induced FoxP3^+ cells,3-6 fold,showed costimulatory molecules,little effect,–,–
B1,inhibited,–,–,–,–,–,–,–,blocked,blocked
